Measurements as given in patent US20200254065A1, “LONG-ACTING GLP-2 ANALOGS” (OPKO Biologics Ltd., priority 2019, published 2020).
Marks after values point to notes of the source that are not given here. Square brackets hold non-standard residues; d marks the D form. Peptide text beside a SMILES is read from it. Nle = CCCC[C@H](N)C(=O)O

Tests used:
small intestine = assay: Intestine weight model in rats; format: in vivo, SD rats; details: for Small intestine weight increase over vehicle (%): MAL-FMS-V4 compared to Vehicle 2
Method in brief: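 Rat intestinal growth model: conjugates given s.c. at 0.5–8.0 mg/kg peptide dose, as one injection, on days 1 and 3, or every 6 days; small intestine weighed on day 3, 6, 7, 10, 12 or 14. Histology (H&E, duodenum/jejunum/ileum) gave crypt+villus length. Both reported as % increase over vehicle.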

GLP-2 receptor = biological target: T1, GLP-2 receptor (Homo sapiens, UniProt O95838); assay: GLP-2 receptor Cell Based Assay (CBA)
T1 sequence (O95838 1-553): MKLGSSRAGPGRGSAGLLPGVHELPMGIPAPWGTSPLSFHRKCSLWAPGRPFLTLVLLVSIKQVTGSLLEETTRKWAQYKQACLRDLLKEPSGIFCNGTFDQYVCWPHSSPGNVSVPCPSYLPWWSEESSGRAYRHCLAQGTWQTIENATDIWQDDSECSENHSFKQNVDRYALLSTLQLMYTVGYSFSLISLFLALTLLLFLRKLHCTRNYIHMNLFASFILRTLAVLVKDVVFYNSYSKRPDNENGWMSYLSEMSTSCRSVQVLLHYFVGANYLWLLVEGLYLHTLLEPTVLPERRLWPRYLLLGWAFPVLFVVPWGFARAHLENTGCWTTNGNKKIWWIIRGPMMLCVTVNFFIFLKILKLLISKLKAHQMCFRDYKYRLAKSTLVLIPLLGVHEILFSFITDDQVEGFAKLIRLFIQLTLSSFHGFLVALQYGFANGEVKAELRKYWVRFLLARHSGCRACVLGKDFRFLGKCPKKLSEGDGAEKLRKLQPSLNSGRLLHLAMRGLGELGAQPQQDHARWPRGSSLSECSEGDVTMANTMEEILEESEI
Description: Evaluation of in vitro binding affinity of the different peptides was assessed by using Cell Based Assay (CBA) in the presence of escalating doses of the different peptides.

- EC50 Ratio to Teduglutide (GLP-2 receptor; Table 7): 3.8
- EC50 Ratio to Teduglutide (GLP-2 receptor; Table 8, average of 3 independent CBA): 1.8
Structure (SMILES): CCCC[C@H](NC(=O)[C@H](CCC(=O)O)NC(=O)[C@H](CC(=O)O)NC(=O)[C@H](CO)NC(=O)[C@H](Cc1ccccc1)NC(=O)[C@H](CO)NC(=O)CNC(=O)[C@H](CCC(=O)O)NC(=O)CNC(=O)[C@@H](N)Cc1c[nH]cn1)C(=O)N[C@@H](CC(N)=O)C(=O)N[C@H](C(=O)N[C@H](C(=O)N[C@@H](CC(C)C)C(=O)N[C@@H](CC(=O)O)C(=O)N[C@@H](CC(C)C)C(=O)N[C@@H](CC(C)C)C(=O)N[C@@H](C)C(=O)N[C@@H](C)C(=O)N[C@@H](CCCNC(=N)N)C(=O)N[C@@H](CC(=O)O)C(=O)N[C@@H](Cc1ccccc1)C(=O)N[C@H](C(=O)N[C@@H](CC(N)=O)C(=O)N[C@@H](Cc1c[nH]c2ccccc12)C(=O)N[C@@H](CC(C)C)C(=O)N[C@H](C(=O)N[C@@H](CCC(N)=O)C(=O)N[C@H](C(=O)N[C@@H](CCCCN)C(=O)N[C@H](C(=O)N[C@H](C(=O)N[C@@H](CC(=O)O)C(N)=O)[C@@H](C)O)[C@@H](C)CC)[C@@H](C)O)[C@@H](C)CC)[C@@H](C)CC)[C@@H](C)CC)[C@@H](C)O [Variant 4] (H-HGEGSFSDE[Nle]NTILDLLAARDFINWLIQTKITD-NH2)
- Small intestine weight percent increase over vehicle (FIG. 12) (small intestine; Study 15203, single SC 2 mg/kg peptide content on Day 1, Days 6 and 10): the most favorable results
- Small intestine weight percent increase over vehicle (FIG. 15) (small intestine; Study 15205, single SC 0.5, 2.0 or 8.0 mg/kg, Days 3, 7 and 14): reached maximal acute response at day 3
- Increase of intestine weight over vehicle (%) (small intestine; modified peptides, two injections on days 1 & 3 at 1 mg/kg, intestine weight on day 6): 89%
- Avg. small intestine weight (gr) (small intestine; normal SD rats, injected once at 2 mg/kg peptide dose, 6th day): 7.0 gr
- Small intestine weight increase over vehicle (%) (small intestine; normal SD rats, injected once at 2 mg/kg peptide dose, 6th day, listed as V4, 2 mg/kg): 43.0** %
- Small intestine weight increase over vehicle (%) (small intestine; normal SD rats, injected once at 2 mg/kg peptide dose, 6th day, listed as V4 peptide, 2 mg/kg): the most pronounced effect on the small intestine weight
